Test results taken from patent US20180201609A1 (AURIGENE DISCOVERY TECHNOLOGIES LIMITED, priority 2015, published 2018).
Structures can show the parent of a compound that is named as a salt.

Target: T1, IRAK-4 enzyme (Homo sapiens, UniProt Q9NWZ3)
T1 construct: purchased Millipore, USA
T1 sequence (Q9NWZ3 1-460): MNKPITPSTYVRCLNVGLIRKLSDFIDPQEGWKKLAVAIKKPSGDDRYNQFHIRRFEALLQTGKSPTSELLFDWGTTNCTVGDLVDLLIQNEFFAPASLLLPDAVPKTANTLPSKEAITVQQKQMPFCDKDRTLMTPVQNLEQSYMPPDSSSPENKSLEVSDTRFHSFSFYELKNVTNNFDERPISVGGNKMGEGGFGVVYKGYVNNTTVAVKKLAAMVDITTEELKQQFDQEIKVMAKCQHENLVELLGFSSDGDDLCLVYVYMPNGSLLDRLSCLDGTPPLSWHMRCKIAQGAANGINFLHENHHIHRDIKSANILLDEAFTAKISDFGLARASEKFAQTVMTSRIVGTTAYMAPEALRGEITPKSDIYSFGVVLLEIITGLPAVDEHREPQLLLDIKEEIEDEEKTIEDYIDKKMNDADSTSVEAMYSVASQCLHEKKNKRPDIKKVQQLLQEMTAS
Assay: IRAK-4 Biochemical Assay (TR-FRET)
Details: recombinant IRAK-4 kinase, 20 μM ATP; for inhibition at 0.1 µM: 0.1 μM compound; for inhibition at 1 µM: 1 μM compound
Protocol: Compounds were tested for their potential to inhibit IRAK-4 enzyme in a TR-FRET assay using recombinant IRAK-4 kinase from Millipore, USA. The assay buffer was 50 mM Tris-HCl pH 7.5, 20 mM MgCl2, 1 mM EGTA, 2 mM DTT, 3 mM MnCl2 and 0.01% Tween 20.5 ng of IRAK-4 kinase was used for the assay. After pre-incubation of enzyme with test compound for 30 minutes at room temperature, a substrate mixture containing 100 nM Biotin Histone H3 (Millipore, USA) and 20 μM ATP (Sigma, USA) was added and the reaction was incubated for 30 min. Post incubation, the reaction was stopped by the addition of stop mix containing 40 mM EDTA, 1 nM of Europium-Anti-Phospho-Histone H3 (Ser10) antibody (Perkin Elmer, USA) and 20 nM SureLight Allophycocyanin-Streptavidin (Perkin Elmer, USA). The fluorescence emission at 615 nm and 665 nm were measured at an excitation of 340 nm and the percent inhibition was estimated from the ratio of the fluorescence intensities [(F665/F615)×10000].
The compounds of the present invention were screened in the above mentioned assay and the percent inhibition data is summarized in the Table 1.

Compound	inhibition at 0.1 µM	inhibition at 1 µM
CN1CCC(n2cc3cc(NC(=O)c4cccc(N5CCC(O)C5)n4)c(C4CC4)cc3n2)CC1 (stereo not drawn) [Example 56, N-(6-cyclopropyl-2-(1-methylpiperidin-4-yl)-2H-indazol-5-yl)-6-(3-hydroxypyrrolidin-1-yl)picolinamide hydrochloride]	20%	71%
COCCn1cc2cc(NC(=O)c3cccc(N4CCC(O)C4)n3)c(N3CCCCC3)cc2n1 (stereo not drawn) [Example 61, 6-(3-hydroxypyrrolidin-1-yl)-N-(2-(2-methoxyethyl)-6-(piperidin-1-yl)-2H-indazol-5-yl)picolinamide]	94%	97%
COCCn1ncc2cc(NC(=O)c3coc(-c4ccnc(C)c4)n3)c(N3CCC(O)CC3)nc21 [Example 25, N-(6-(4-hydroxypiperidin-1-yl)-1-(2-methoxyethyl)-1H-pyrazolo[3,4-b]pyridin-5-yl)-2-(2-methylpyridin-4-yl)oxazole-4-carboxamide]	67%	97%
Cc1nn(C)c2cc(N3CCC(CO)CC3)c(NC(=O)c3coc(-c4cc(N)ncc4Cl)n3)cc12 [Example 38, 2-(2-amino-5-chloropyridin-4-yl)-N-(6-(4-(hydroxymethyl)piperidin-1-yl)-1,3-dimethyl-1H-indazol-5-yl)oxazole-4-carboxamide hydrochloride]	50%	90%
Cn1cc2cc(NC(=O)c3coc(-c4cccc(N)n4)n3)c(N3CCOCC3)cc2n1 [Example 42, 2-(6-aminopyridin-2-yl)-N-(2-methyl-6-morpholino-2H-indazol-5-yl)oxazole-4-carboxamide]	86%	97%
C[C@H](O)Cn1cc(-c2cccc(C(=O)Nc3cc4cn(C)nc4nc3N3CCCCC3)n2)cn1 [Example 19, (S)-6-(1-(2-hydroxypropyl)-1H-pyrazol-4-yl)-N-(2-methyl-6-(piperidin-1-yl)-2H-pyrazolo[3,4-b]pyridin-5-yl)picolinamide]	–	96%
Cc1nn(C)c2nc(N3CCC(CO)CC3)c(NC(=O)c3coc(-c4ccnc(N)c4)n3)cc12 [Example 29, 2-(2-aminopyridin-4-yl)-N-(6-(4-(hydroxymethyl)piperidin-1-yl)-1,3-dimethyl-1H-pyrazolo[3,4-b]pyridin-5-yl)oxazole-4-carboxamide]	97%	99%
C=CCOCC1CCN(c2cc3c(cc2NC(=O)c2coc(-c4ccnc(N)c4)n2)c(C)nn3C)CC1 [Example 12, N-(6-(4-((allyloxy)methyl)piperidin-1-yl)-1,3-dimethyl-1H-indazol-5-yl)-2-(2-aminopyridin-4-yl)oxazole-4-carboxamide]	95%	96%
Cn1cc2cc(NC(=O)c3cc(-c4ccc(N)nc4)ccn3)c(N3CCCCC3)cc2n1 [Example 53, 6-amino-N-(2-methyl-6-(piperidin-1-yl)-2H-indazol-5-yl)-[3,4′-bipyridine]-2′-carboxamide hydrochloride]	0%	13%
Cn1cc2cc(NC(=O)c3cccc(-c4ccnc(N)c4)n3)c(C3CC3)cc2n1 [Example 52, 2′-amino-N-(6-cyclopropyl-2-methyl-2H-indazol-5-yl)-[2,4′-bipyridine]-6-carboxamide]	93%	96%
Cc1cc(-c2nc(C(=O)Nc3cc4c(C)n(C)nc4nc3N3CCCCC3)co2)ccn1 [Example 26, N-(2,3-dimethyl-6-(piperidin-1-yl)-2H-pyrazolo[3,4-b]pyridin-5-yl)-2-(2-methylpyridin-4-yl)oxazole-4-carboxamide]	94%	97%
Cc1nn(C)c2cc3c(cc12)NC(=O)c1coc(n1)-c1ccnc(c1)NCCCOCC1CCN3CC1 [Example 39, (Z)-51,53-dimethyl-51H-8-oxa-4,12-diaza-2(2,4)-oxazola-5(5,6)-indazola-1(4,2)-pyridina-6(1,4)-piperidinacyclododecaphan-3-one]	4%	72%
CCOCC1CCN(c2cc3c(cc2NC(=O)c2coc(-c4ccnc(N)c4)n2)c(C)nn3C)CC1 [Example 35, 2-(2-aminopyridin-4-yl)-N-(6-(4-(ethoxymethyl)piperidin-1-yl)-1,3-dimethyl-1H-indazol-5-yl)oxazole-4-carboxamide]	95%	96%
Cc1nn(C)c2cc(N3CCC(CO)CC3)c(NC(=O)c3coc(-c4cc(F)c(=O)n(C)c4)n3)cc12 [Example 11, 2-(5-fluoro-1-methyl-6-oxo-1,6-dihydropyridin-3-yl)-N-(6-(4-(hydroxymethyl)piperidin-1-yl)-1,3-dimethyl-1H-indazol-5-yl)oxazole-4-carboxamide hydrochloride]	26%	59%
Cc1c2cc(NC(=O)c3coc(-c4ccnc(N)c4)n3)c(N3CCCCC3)nc2nn1C [Example 27, 2-(2-aminopyridin-4-yl)-N-(2,3-dimethyl-6-(piperidin-1-yl)-2H-pyrazolo[3,4-b]pyridin-5-yl)oxazole-4-carboxamide]	97%	98%
C=CCOCC1CCN(c2cc3c(cc2NC(=O)c2coc(-c4cccc(N)n4)n2)c(C)nn3C)CC1 [Example 34]	25%	46%
Cn1cc2cc(NC(=O)c3cccc(N4CC[C@@H](OC(=O)CN)C4)n3)c(N3CCCCC3)cc2n1 [Example 58, (R)-1-(6-((2-methyl-6-(piperidin-1-yl)-2H-indazol-5-yl)carbamoyl)pyridin-2-yl)pyrrolidin-3-yl glycinate 2,2,2-trifluoroacetate]	91%	96%
Cc1cc(-c2nc(C(=O)Nc3cc4c(C)nn(C)c4nc3N3CCC(CO)CC3)co2)ccn1 [Example 28, N-(6-(4-(hydroxymethyl)piperidin-1-yl)-1,3-dimethyl-1H-pyrazolo[3,4-b]pyridin-5-yl)-2-(2-methylpyridin-4-yl)oxazole-4-carboxamide]	89%	97%

The next lines start with the values.

inhibition at 0.1 µM	inhibition at 1 µM	Compound
91%	98%	Cn1cc2cc(NC(=O)c3cncc(N4CCC(O)C4)n3)c(N3CCCCC3)cc2n1 (stereo not drawn) [Example 65, 6-(3-hydroxypyrrolidin-1-yl)-N-(2-methyl-6-(piperidin-1-yl)-2H-indazol-5-yl)pyrazine-2-carboxamide]
75%	96%	Cn1cc2cc(NC(=O)c3cccc(N4CCC(O)C4)n3)c(N3CCOCC3)cc2n1 (stereo not drawn) [Example 68, 6-(3-hydroxypyrrolidin-1-yl)-N-(2-methyl-6-morpholino-2H-indazol-5-yl)picolinamide]
–	65%	Cn1cc2cc(NC(=O)c3coc(N4CC[C@H](O)C4)n3)c(C3CC3)nc2n1 [Example 22, (S)—N-(6-cyclopropyl-2-methyl-2H-pyrazolo[3,4-b]pyridin-5-yl)-2-(3-hydroxypyrrolidin-1-yl)oxazole-4-carboxamide]
27%	82%	Cc1cc2nn(C)cc2cc1NC(=O)c1cccc(N2CCC(O)C2)n1 (stereo not drawn) [Example 70, N-(2,6-dimethyl-2H-indazol-5-yl)-6-(3-hydroxypyrrolidin-1-yl)picolinamide]
34%	78%	Cn1cc2cc(NC(=O)c3cccc(N4CC[C@H](N)C4)n3)c(N3CCCCC3)nc2n1 [Example 15, (S)-6-(3-aminopyrrolidin-1-yl)-N-(2-methyl-6-(piperidin-1-yl)-2H-pyrazolo[3,4-b]pyridin-5-yl)picolinamide]
29%	86%	Cn1cc2cc(NC(=O)c3ccnc(N4CCC(O)C4)n3)c(C3CC3)cc2n1 (stereo not drawn) [Example 72, N-(6-cyclopropyl-2-methyl-2H-indazol-5-yl)-2-(3-hydroxypyrrolidin-1-yl)pyrimidine-4-carboxamide]
99%	99%	Cn1cc2cc(NC(=O)c3coc(-c4ccnc(N)c4)n3)c(N3CCCCC3)nc2n1 [Example 24]
–	90%	Cn1cc2cc(NC(=O)c3coc(N4CC[C@H](N)C4)n3)c(N3CCCCC3)nc2n1 [Example 17, (S)-2-(3-aminopyrrolidin-1-yl)-N-(2-methyl-6-(piperidin-1-yl)-2H-pyrazolo[3,4-b]pyridin-5-yl)oxazole-4-carboxamide]
0%	57%	Cn1cc2cc(NC(=O)c3ccc(N4CCC(O)C4)cn3)c(N3CCCCC3)nc2n1 (stereo not drawn) [Example 40, 5-(3-hydroxypyrrolidin-1-yl)-N-(2-methyl-6-(piperidin-1-yl)-2H-pyrazolo[3,4-b]pyridin-5-yl)picolinamide]
